One experiment concerns the target Cannabinoid receptor 2 (Homo sapiens, UniProt P34972). The experiment can be described thus: (§1) As used herein, the term T-type calcium channel blocker refers to a compound that can modulate, in particular inhibit or reduce activation of T-type calcium channels. […] The term about refers to ±20%, typically ±10%, and often ±5% of the numeric value.
The next experiment has as its target Cannabinoid receptor 1 (Rattus norvegicus, UniProt P20272). The experiment is described as §1.

Ki data for one compound are collected here from ChEMBL document CHEMBL5726728, “T-type calcium channel modulator and uses thereof” (2019).

Broadly, the pKi is the negative decadic logarithm of the Ki, by convention in mol/L.

pKi: −log10 of the molar value.

Sequence of Cannabinoid receptor 1 (P20272 whole entry): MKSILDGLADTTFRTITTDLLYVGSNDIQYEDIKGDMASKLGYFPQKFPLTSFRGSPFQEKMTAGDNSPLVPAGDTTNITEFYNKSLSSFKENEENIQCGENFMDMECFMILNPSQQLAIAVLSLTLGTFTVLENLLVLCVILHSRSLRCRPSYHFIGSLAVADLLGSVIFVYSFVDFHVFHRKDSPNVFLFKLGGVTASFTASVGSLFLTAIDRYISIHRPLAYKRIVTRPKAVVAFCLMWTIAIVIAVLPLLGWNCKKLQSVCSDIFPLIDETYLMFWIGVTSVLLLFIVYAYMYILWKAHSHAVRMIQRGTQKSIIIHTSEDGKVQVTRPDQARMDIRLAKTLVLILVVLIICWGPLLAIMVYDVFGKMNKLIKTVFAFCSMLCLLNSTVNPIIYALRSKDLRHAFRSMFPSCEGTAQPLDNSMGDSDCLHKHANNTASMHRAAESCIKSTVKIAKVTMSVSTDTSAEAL
Sequence of Cannabinoid receptor 2 (P34972 whole entry): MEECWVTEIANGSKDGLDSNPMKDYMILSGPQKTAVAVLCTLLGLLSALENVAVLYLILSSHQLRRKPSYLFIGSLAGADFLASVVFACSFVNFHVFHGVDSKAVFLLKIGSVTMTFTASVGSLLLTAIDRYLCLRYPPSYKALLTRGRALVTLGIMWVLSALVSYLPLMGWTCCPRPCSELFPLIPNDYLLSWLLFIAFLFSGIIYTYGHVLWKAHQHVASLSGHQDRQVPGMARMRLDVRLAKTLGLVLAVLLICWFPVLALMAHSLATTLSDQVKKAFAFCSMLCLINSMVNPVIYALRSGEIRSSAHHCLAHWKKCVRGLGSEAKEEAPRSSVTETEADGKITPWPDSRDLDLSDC

With `CCCCCn1c2ccccc2c2cc(C(=O)N3CCN(CC(=O)NC(C)(C)C)CC3)ccc21`, the pKi was 5.71 on Cannabinoid receptor 2 and 7.82 on Cannabinoid receptor 1.
